{"source": "paper PMC4389443", "about": "(Respiratory Research, 2015)", "key": {"[1]": {"target": "T1, Recombinant retina specific amine oxidase (AOC2) (Homo sapiens, UniProt O75106)", "T1 sequence (O75106 1-756)": "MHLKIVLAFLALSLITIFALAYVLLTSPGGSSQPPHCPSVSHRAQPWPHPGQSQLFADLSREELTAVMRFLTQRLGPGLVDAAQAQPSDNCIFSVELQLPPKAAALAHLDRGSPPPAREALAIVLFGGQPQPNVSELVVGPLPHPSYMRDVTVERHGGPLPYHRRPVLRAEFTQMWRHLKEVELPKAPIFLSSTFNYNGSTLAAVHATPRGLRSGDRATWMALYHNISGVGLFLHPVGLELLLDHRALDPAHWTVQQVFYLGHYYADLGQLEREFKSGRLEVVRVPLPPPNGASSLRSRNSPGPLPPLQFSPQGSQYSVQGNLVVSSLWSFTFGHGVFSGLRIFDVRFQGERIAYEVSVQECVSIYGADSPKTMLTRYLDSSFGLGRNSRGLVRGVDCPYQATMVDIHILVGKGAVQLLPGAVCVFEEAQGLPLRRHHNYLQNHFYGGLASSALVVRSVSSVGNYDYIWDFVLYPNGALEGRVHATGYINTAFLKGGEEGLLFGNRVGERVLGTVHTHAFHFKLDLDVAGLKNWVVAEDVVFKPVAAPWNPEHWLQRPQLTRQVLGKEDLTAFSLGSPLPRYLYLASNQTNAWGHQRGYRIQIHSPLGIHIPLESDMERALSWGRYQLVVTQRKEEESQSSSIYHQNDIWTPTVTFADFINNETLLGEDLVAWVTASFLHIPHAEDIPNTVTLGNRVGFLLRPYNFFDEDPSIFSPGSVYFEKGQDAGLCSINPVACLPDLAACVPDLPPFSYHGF", "assay": "AOC2 enzyme activity assay", "type": "biochemical"}, "[2]": {"target": "carbonic anhydrase II (Homo sapiens, UniProt P00918)", "assay": "Carbonic anhydrase II activity", "type": "biochemical"}, "[3]": {"assay": "Plasma stability", "type": "in vitro ADME", "details": "human plasma, 1 hour incubation"}, "[4]": {"assay": "Water solubility", "type": "physicochemical"}, "[5]": {"assay": "Pharmacokinetics in Wistar rats", "type": "in vivo", "details": "rat; for Cmax: read-out: Apparent concentration at curve maximum Cmax", "protocol": "(§1) Studies were performed by ICP Firefly, Pharmalegacy and Sundia with local ethics approval. […] Plasma was analyzed for PXS-4728A by high-performance liquid chromatography-mass spectrometry/mass spectrometry. Basic pharmacokinetic parameters were estimated using PK Solutions software (Summit Research Services)."}, "[6]": {"assay": "Pharmacokinetics in BALB/c mice", "type": "in vivo", "details": "mouse; for Cmax: read-out: Apparent concentration at curve maximum Cmax", "protocol": "as §1"}, "[7]": {"test_system": "HepG2 cells", "assay": "Phospholipidosis in HepG2 cells", "type": "cell-based", "details": "highest concentration tested 100 μM"}, "[8]": {"test_system": "BALB/c mice", "assay": "House dust mite/Rhinovirus exacerbated asthma model", "type": "in vivo, mouse", "details": "24 hours post RV1b infection", "protocol": "Study performed at the University of Newcastle under local ethics committee. BALB/c mice were sensitized and challenged intranasally to 50 μg of crude HDM extract (Dermatophagoides pteronyssinus extract was obtained from Greer Laboratories) on days 0, 1 and 2 followed by four exposures of 5 μg HDM daily from day 14 to day 17 delivered in 50 μl of sterile saline. Animals were then infected on day 18 with infective Human Rhinovirus 1b RV1B41 (2.5 × 10^6 median tissue culture infective dose) intranasally. Mice were intranasally administered 50 μl infective or ultraviolet light (UV)–inactivated RV1B41. Mice were euthanized 24 hours after the rhinovirus challenge. BAL analysis was performed for total and differential counts and airway hyperreactivity (AHR) was assessed invasively by measurement of total lung resistance and dynamic compliance (BUXCO) in response to methacholine challenge as previously described. […]. Dose of azithromycin was chosen based on previously described findings, in respiratory viral infection models."}, "[9]": {"test_system": "BALB/c mice", "assay": "Klebsiella pneumoniae lung infection"}, "[10]": {"test_system": "C57/BL6 mice", "assay": "Cecal ligation and puncture (CLP) induced sepsis"}, "[11]": {"details": "24 hours, PXS-4728A 6 mg.kg^−1, dexamethasone 10 mg.kg^−1, oral 1 hour prior to infection"}, "[12]": {"details": "6 hours, 6 mg.kg^−1 oral 1 hour prior to surgery"}, "[13]": {"details": "6 hours, PXS-4728A 6 mg.kg^−1, dexamethasone 5 mg.kg^−1, oral 1 hour prior to surgery"}}, "note": "Like-named read-outs stand apart in the source and are kept apart here.", "data": [{"smiles": "CC(C)(C)NC(=O)c1ccc(OC/C(=C/F)CN)cc1", "note": "[PXS-4728A]", "values": [{"measurement": "IC50", "setting": "[1]", "value": 2760, "unit": "nM"}, {"measurement": "Activity for carbonic anhydrase II", "setting": "[2]", "value": "removing all activity"}, {"measurement": "Plasma stability, remaining", "setting": "[3]", "value": "> 90", "unit": "%"}, {"measurement": "solubility", "setting": "[4]; Figure 1, read-out: Solubility (H2O)", "value": "> 10000", "unit": "µg/mL"}, {"measurement": "solubility", "setting": "[4]; pH 7.4, aqueous buffer, read-out: Water solubility", "value": "> 10000", "unit": "µg/mL"}, {"measurement": "Cmax", "setting": "[5]; Wistar, plasma, intravenous 3 mg.kg^−1", "value": 4210, "unit": "ng/mL"}, {"measurement": "clearance", "setting": "[5]; Wistar, plasma, intravenous 3 mg.kg^−1, read-out: Clearance CL", "value": 23, "unit": "mL/min/kg"}, {"measurement": "Cmax", "setting": "[5]; Wistar, plasma, oral 6 mg.kg^−1", "value": 720, "unit": "ng/mL"}, {"measurement": "Tmax", "setting": "[5]; Wistar, plasma, oral 6 mg.kg^−1, read-out: Time of maximal concentration Tmax", "value": 49.8, "unit": "min"}, {"measurement": "half-life", "setting": "[5]; Wistar, plasma, iv, 3 mg/kg, intravenous 3 mg.kg^−1, read-out: Apparent half-life, t1/2 (converted)", "value": "~60", "unit": "min"}, {"measurement": "bioavailability", "setting": "[5]; Wistar, plasma, oral, 6 mg.kg^−1, rat, oral 6 mg.kg^−1 / i.v. 3 mg.kg^−1", "value": "> 55", "unit": "%"}, {"measurement": "Clearance CL", "setting": "[5]; oral 6 mg.kg^−1", "value": 45, "unit": "mL·kg/min"}, {"measurement": "Bioavailability (%)", "setting": "[5]; oral 6 mg.kg^−1 / i.v. 3 mg.kg^−1", "value": 55, "unit": "%"}, {"measurement": "bioavailability", "setting": "[6]; BALB/c, plasma, oral, 10 mg.kg^−1, mouse, oral 10 mg.kg^−1 / i.v. 5 mg.kg^−1", "value": "> 90", "unit": "%"}, {"measurement": "Cmax", "setting": "[6]; BALB/c, plasma, intravenous 5 mg.kg^−1", "value": 1600, "unit": "ng/mL"}, {"measurement": "half-life", "setting": "[6]; BALB/c, plasma, intravenous 5 mg.kg^−1, read-out: Apparent half-life, t1/2 (converted)", "value": 36, "unit": "min"}, {"measurement": "clearance", "setting": "[6]; BALB/c, plasma, intravenous 5 mg.kg^−1, read-out: Clearance CL", "value": 80, "unit": "mL/min/kg"}, {"measurement": "Cmax", "setting": "[6]; BALB/c, plasma, oral 10 mg.kg^−1", "value": 1380, "unit": "ng/mL"}, {"measurement": "Tmax", "setting": "[6]; BALB/c, plasma, oral 10 mg.kg^−1, read-out: Time of maximal concentration Tmax", "value": 15, "unit": "min"}, {"measurement": "Clearance CL", "setting": "[6]; oral 10 mg.kg^−1", "value": 98, "unit": "mL·kg/min"}, {"measurement": "Bioavailability (%)", "setting": "[6]; oral 10 mg.kg^−1 / i.v. 5 mg.kg^−1", "value": 92, "unit": "%"}, {"measurement": "Phospholipidosis", "setting": "[7]", "value": "does not induce"}, {"measurement": "Airways hyperreactivity to methacholine challenge", "setting": "[8]; PXS-4728A 2, azithromycin 25 mg.kg^−1 ip.", "value": "significantly reduced"}, {"measurement": "Total BALF neutrophils", "setting": "[8]; PXS-4728A 2, dexamethasone 2, azithromycin 25 mg.kg^−1 ip.", "value": "reduced"}, {"measurement": "Neutrophil migration into the airway spaces (BALF)", "setting": "[9]; [11]", "value": "significantly dampened"}, {"measurement": "Total leukocyte migration into the airway spaces (BALF)", "setting": "[9]; [11]", "value": "significantly dampened"}, {"measurement": "Log 10-CFU in the lung (bacterial load), average", "setting": "[9]; 24 hours, PXS-4728A 6 mg.kg^−1, dexamethasone 10 mg.kg^−1, vehicle 7.59", "value": 8.27, "unit": "LOG 10-CFU"}, {"measurement": "Survival", "setting": "[9]; treated 1 hour prior to infection and daily thereafter", "value": "not compromised"}, {"measurement": "Myeloperoxidase in the lung", "setting": "[10]; [12]", "value": "reduction"}, {"measurement": "Neutrophils in bronchoalveolar lavage", "setting": "[10]; [12]", "value": "reduction"}, {"measurement": "Total cells in bronchoalveolar lavage", "setting": "[10]; [12]", "value": "reduction"}, {"measurement": "Peritoneal neutrophils", "setting": "[10]; [13]", "value": "not affected"}, {"measurement": "Total peritoneal inflammatory cells", "setting": "[10]; [13]", "value": "not affected"}, {"measurement": "Survival rate", "setting": "[10]; treated 1 hour prior and daily thereafter, control animals 50%, p = 0.057", "value": 90, "unit": "%"}]}]}
